These results are taken from patent US10271543B2, “Systems and methods for cryopreservation of cells” (Cook General Biotechnology LLC, priority 2006, dated 2019).

For one series, the system named is human spermatozoa. In words: Cytotoxicity of bound cholesterol on semen in culture (motility evaluations). In kind it is cell-based. The note with it: culture plates coated with 100 µl sterol solution; 1, 2, 4 and 8 hours of incubation. Here is the method: In this experiment, liquefied semen samples were exposed to culture plates that had been coated with 100 µl of the sterol solution.

The next series has as its system human red blood cells. Particulars: 3.3M (30%) glycerol; over a 2-3 log range in cooling rates; cited from earlier work.

As for `CC(C)CCC[C@@H](C)[C@H]1CC[C@H]2[C@@H]3CC=C4C[C@@H](O)CC[C@]4(C)[C@H]3CC[C@]12C` [bound cholesterol, cholesterol], the “cytotoxic effect (motility evaluations)” value with human spermatozoa is on record as “no significant cytotoxic effect”.

In the case of `OCC(O)CO` [glycerol], in the series with human red blood cells, the survival result is “around 90%”.
